# Measured values reported in US7951802B2, “Use of 7-azaindoles in the inhibition of c-Jun N-terminal kinase” (Eisai R&D Management Co., Ltd., priority 2007, dated 2011).
# Molecular target: JNK3 (Homo sapiens, UniProt P53779)
# Test: JNK3 SPA assay (phosphorylation of GST-c-Jun)
# Format: biochemical
# Conditions: 3.33 μM ATP, GST-c-Jun substrate, read-out: IC50 against JNK3
# Procedure: JNK1, JNK2, JNK3—SPA Assay
# JNK1, JNK2, JNK3—SPA Assay • 1. Compound is dissolved in DMSO to a convenient concentration and this is diluted in 10% DMSO to a five times concentrate of the desired starting concentration (frequently 1:100). • 2. 10 μl of 500 mM EDTA is added to alternative wells of the Opti-plate row, which will receive kinase reaction plus DMSO. This creates the negative control. • 3. For the JNK2 and JNK3 assay, compounds are prepared in six 2-fold dilutions with water and each concentration is tested in duplicate. For the JNK1 assay compounds are prepared in four 5-fold dilutions with water which are tested in triplicate. Controls are treated identically. • 4. 20 μl per well of each compound concentration is transferred to an Opti-plate, in duplicate. • 5. 30 μl (JNK2/3 SPA) or 50 μl (JNK1 SPA) of substrate solution (25 mM HEPES pH 7.5, 10 mM magnesium acetate with 3.33 μM ATP (JNK2/3) or 2 μM ATP (JNK1), approximately 7.5 kBq [γ-^33P] ATP, GST-c-Jun, in water) is added to each well. • 6. 50 μl (JNK2/3 SPA) or 30 μl (JNK1 SPA) of kinase solution (JNK in 25 mM HEPES pH 7.5, 10 mM Mg Acetate) is added to each well.
# • 7. The plate is incubated for 30 minutes at room temperature. • 8. 100 μl of bead/stop solution is added to each well (5 mg/ml glutathione-PVT-SPA beads, 40 mM ATP in PBS). • 9. Plates are sealed and incubated for 30 minutes at room temperature, centrifuged for 10 minutes at 2500 g and counted. • 10. The IC50 values are calculated as the concentration of the compound being tested at which the phosphorylation of c-Jun is decreased to 50% of the control value.
# JNK3, sequence (P53779 whole entry, species assumed): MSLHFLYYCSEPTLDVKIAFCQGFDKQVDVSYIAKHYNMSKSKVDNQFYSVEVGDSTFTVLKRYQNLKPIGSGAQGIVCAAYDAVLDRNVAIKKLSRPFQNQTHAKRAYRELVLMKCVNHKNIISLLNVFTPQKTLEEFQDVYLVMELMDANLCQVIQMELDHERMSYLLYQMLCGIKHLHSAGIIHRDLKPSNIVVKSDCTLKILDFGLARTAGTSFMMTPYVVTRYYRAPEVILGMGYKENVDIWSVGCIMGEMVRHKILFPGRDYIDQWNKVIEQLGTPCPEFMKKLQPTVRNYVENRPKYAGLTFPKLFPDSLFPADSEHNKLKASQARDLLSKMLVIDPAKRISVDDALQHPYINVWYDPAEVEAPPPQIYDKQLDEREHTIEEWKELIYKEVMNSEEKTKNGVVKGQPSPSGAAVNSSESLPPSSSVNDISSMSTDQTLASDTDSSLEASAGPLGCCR
row,SMILES,IC50
1,"CC1CCC(c2cnc3[nH]cc(-c4csc(C(=O)N(C)C)n4)c3c2)CC1 (stereo not shown) [Compound I-19, 4-[5-(4-Methyl-cyclohexyl)-1H-pyrrolo[2,3-b]pyridin-3-yl]-thiazole-2-carboxylic acid dimethylamide]",117 nM
2,"c1sc(N2CCCC2)nc1-c1c[nH]c2ncc([C@H]3CC[C@H](N4CCCOCC4)CC3)cc12 [Compound I-122, 5-[trans-4-(1,4-oxazepan-4-yl)cyclohexyl]-3-(2-pyrrolidin-1-yl-1,3-thiazol-4-yl)-1H-pyrrolo[2,3-b]pyridine]",1290 nM
3,"CC1(C)C=CC(c2cnc3[nH]cc(-c4csc(C(=O)N5CCOCC5)n4)c3c2)=CC1 [Compound I-16, {4-[5-(4,4-Dimethyl-cyclohexa-1,5-dienyl)-1H-pyrrolo[2,3-b]pyridin-3-yl]-thiazol-2-yl}-morpholin-4-yl-methanone]",395 nM
4,"c1csc(-c2c[nH]c3ncc(C4CCCCC4)cc23)n1 [Compound I-26, 2-(5-cyclohexyl-1H-pyrrolo[2,3-b]pyridin-3-yl)thiazole]",324 nM
5,"CN1CCN(C(=O)c2nc(-c3c[nH]c4ncc(C5=CCC(C)(C)C=C5)cc34)cs2)CC1 [Compound I-17, {4-[5-(4,4-Dimethyl-cyclohexa-1,5-dienyl)-1H-pyrrolo[2,3-b]pyridin-3-yl]-thiazol-2-yl}-(4-methyl-piperazin-1-yl)-methanone]",40 nM
6,"c1ncc(-c2c[nH]c3ncc([C@H]4CC[C@H](N5CCCOCC5)CC4)cc23)s1 [Compound I-118, 4-((1r,4r)-4-(3-(thiazol-5-yl)-1H-pyrrolo[2,3-b]pyridin-5-yl)cyclohexyl)-1,4-oxazepane]",219 nM
7,"CN1CCN(C(=O)c2nc(-c3c[nH]c4ncc(C5CCCCC5)cc34)cs2)CC1 [Compound I-10, [4-(5-Cyclohexyl-1H-pyrrolo[2,3-b]pyridin-3-yl)-thiazol-2-yl]-(4-methyl-piperazin-1-yl)-methanone]",63 nM
8,"O=C(c1nc(-c2c[nH]c3ncc(C4CCCCC4)cc23)cs1)N1CCCCC1 [Compound I-7, [4-(5-Cyclohexyl-1H-pyrrolo[2,3-b]pyridin-3-yl)-thiazol-2-yl]-piperidin-1-yl-methanone]",238 nM
9,"CN1CCC(c2nc(-c3c[nH]c4ncc(C5=CCC(N6CCCOCC6)CC5)cc34)cs2)CC1 (stereo not shown) [Compound I-101, 4-(4-(3-(2-(1-methylpiperidin-4-yl)thiazol-4-yl)-1H-pyrrolo[2,3-b]pyridin-5-yl)cyclohex-3-enyl)-1,4-oxazepane]",363 nM
10,"FC(F)(F)c1csc(-c2c[nH]c3ncc([C@H]4CC[C@H](N5CCOCC5)CC4)cc23)n1 [Compound I-69, 4-((1r,4r)-4-(3-(4-(trifluoromethyl)thiazol-2-yl)-1H-pyrrolo[2,3-b]pyridin-5-yl)cyclohexyl)morpholine]",447 nM
11,"c1csc(-c2c[nH]c3ncc([C@H]4CC[C@@H](N5CCOCC5)CC4)cc23)n1 [Compound I-90, 4-((1s,4s)-4-(3-(thiazol-2-yl)-1H-pyrrolo[2,3-b]pyridin-5-yl)cyclohexyl)morpholine]",1320 nM
12,"C1=C(c2cnc3[nH]cc(-c4nccs4)c3c2)CCCC1 [Compound I-24, 2-(5-cyclohexenyl-1H-pyrrolo[2,3-b]pyridin-3-yl)thiazole]",229 nM
13,"CN1CCC(c2nc(-c3c[nH]c4ncc([C@H]5CC[C@H](N6CCN(C)CC6)CC5)cc34)cs2)CC1 [Compound I-96, 4-(5-((1r,4r)-4-(4-methylpiperazin-1-yl)cyclohexyl)-1H-pyrrolo[2,3-b]pyridin-3-yl)-2-(1-methylpiperidin-4-yl)thiazole]",229 nM
14,"CN1CCC(c2nc(-c3c[nH]c4ncc([C@H]5CC[C@H](N6CCCC6)CC5)cc34)cs2)CC1 [Compound I-98, 2-(1-methylpiperidin-4-yl)-4-(5-((1r,4r)-4-(pyrrolidin-1-yl)cyclohexyl)-1H-pyrrolo[2,3-b]pyridin-3-yl)thiazole]",794 nM
15,"CC1CCC(c2cnc3[nH]cc(-c4csc(C(=O)N5CCOCC5)n4)c3c2)CC1 (stereo not shown) [Compound I-21, {4-[5-(4-Methyl-cyclohexyl)-1H-pyrrolo[2,3-b]pyridin-3-yl]-thiazol-2-yl}-morpholin-4-yl-methanone]",123 nM
16,"Cc1nc(-c2c[nH]c3ncc(C4CCCCC4)cc23)cs1 [Compound I-58, 4-(5-cyclohexyl-1H-pyrrolo[2,3-b]pyridin-3-yl)-2-methylthiazole]",> 2000 nM

row,SMILES,IC50
1,"c1csc(-c2c[nH]c3ncc([C@H]4CC[C@H](N5CCCOCC5)CC4)cc23)n1 [Compound I-119, 4-((1r,4r)-4-(3-(thiazol-2-yl)-1H-pyrrolo[2,3-b]pyridin-5-yl)cyclohexyl)-1,4-oxazepane]",1050 nM
2,"Cc1nc(-c2c[nH]c3ncc([C@H]4CC[C@@H](N5CCOCC5)CC4)cc23)cs1 [Compound I-56, 4-((1s,4s)-4-(3-(2-methylthiazol-4-yl)-1H-pyrrolo[2,3-b]pyridin-5-yl)cyclohexyl)morpholine]",> 2000 nM
3,"FC(F)(F)c1csc(-c2c[nH]c3ncc([C@H]4CC[C@H](N5CCCOCC5)CC4)cc23)n1 [Compound I-80, 4-((1r,4r)-4-(3-(4-(trifluoromethyl)thiazol-2-yl)-1H-pyrrolo[2,3-b]pyridin-5-yl)cyclohexyl)-1,4-oxazepane]",513 nM
4,"c1csc(-c2c[nH]c3ncc([C@H]4CC[C@H](N5CCOCC5)CC4)cc23)n1 [Compound I-89, 4-((1r,4r)-4-(3-(thiazol-2-yl)-1H-pyrrolo[2,3-b]pyridin-5-yl)cyclohexyl)morpholine]",575 nM
5,"Cc1nc(-c2c[nH]c3ncc([C@H]4CC[C@H](N5CCCOCC5)CC4)cc23)sc1C [Compound I-123, 3-(4,5-dimethyl-1,3-thiazol-2-yl)-5-[trans-4-(1,4-oxazepan-4-yl)cyclohexyl]-1H-pyrrolo[2,3-b]pyridine]",1070 nM
6,"CN1CCC(c2nc(-c3c[nH]c4ncc(C5=CCC(N6CCOCC6)CC5)cc34)cs2)CC1 (stereo not shown) [Compound I-100, 4-(4-(3-(2-(1-methylpiperidin-4-yl)thiazol-4-yl)-1H-pyrrolo[2,3-b]pyridin-5-yl)cyclohex-3-enyl)morpholine]",447 nM
7,"O=C(c1nc(-c2c[nH]c3ncc(C4=CCCC4)cc23)cs1)N1CCOCC1 [Compound I-3, [4-(5-Cyclopent-1-enyl-1H-pyrrolo[2,3-b]pyridin-3-yl)-thiazol-2-yl]-morpholin-4-yl-methanone]",38 nM
8,"Cc1cnc(-c2c[nH]c3ncc([C@H]4CC[C@H](N5CCOCC5)CC4)cc23)s1 [Compound I-62, 4-((1r,4r)-4-(3-(5-methylthiazol-2-yl)-1H-pyrrolo[2,3-b]pyridin-5-yl)cyclohexyl)morpholine]",871 nM
9,"O=C(c1nc(-c2c[nH]c3ncc([C@H]4CC[C@H](N5CCOCC5)CC4)cc23)cs1)N1CCCCC1 [Compound I-33, (4-(5-((1r,4r)-4-morpholinocyclohexyl)-1H-pyrrolo[2,3-b]pyridin-3-yl)thiazol-2-yl)(piperidin-1-yl)methanone]",198 nM
10,"CN1CCN(C(=O)c2nc(-c3c[nH]c4ncc([C@H]5CC[C@@H](N6CCOCC6)CC5)cc34)cs2)CC1 [Compound I-32, (4-methylpiperazin-1-yl)(4-(5-((1s,4s)-4-morpholinocyclohexyl)-1H-pyrrolo[2,3-b]pyridin-3-yl)thiazol-2-yl)methanone]",955 nM
11,"CN1CCC(c2csc(-c3c[nH]c4ncc([C@H]5CC[C@H](N6CCOCC6)CC5)cc34)n2)CC1 [Compound I-78, 4-((1r,4r)-4-(3-(4-(1-methylpiperidin-4-yl)thiazol-2-yl)-1H-pyrrolo[2,3-b]pyridin-5-yl)cyclohexyl)morpholine]",295 nM
12,"FC(F)(F)c1csc(-c2c[nH]c3ncc([C@H]4CC[C@H](N5CCCC5)CC4)cc23)n1 [Compound I-84, 2-(5-((1r,4r)-4-(pyrrolidin-1-yl)cyclohexyl)-1H-pyrrolo[2,3-b]pyridin-3-yl)-4-(trifluoromethyl)thiazole]",692 nM
13,"O=C(c1nc(-c2c[nH]c3ncc(C4CCCCC4)cc23)cs1)N1CCOCC1 [Compound I-8, [4-(5-Cyclohexyl-1H-pyrrolo[2,3-b]pyridin-3-yl)-thiazol-2-yl]-morpholin-4-yl-methanone]",111 nM
14,"CN1CCCC1c1nc(-c2c[nH]c3ncc([C@H]4CC[C@H](N5CCCC5)CC4)cc23)cs1 (stereo partly shown) [Compound I-111, 2-(1-methylpyrrolidin-2-yl)-4-(5-((1r,4r)-4-(pyrrolidin-1-yl)cyclohexyl)-1H-pyrrolo[2,3-b]pyridin-3-yl)thiazole]",1740 nM
15,"FC(F)(F)c1csc(-c2c[nH]c3ncc([C@H]4CC[C@@H](N5CCCC5)CC4)cc23)n1 [Compound I-85, 2-(5-((1s,4s)-4-(pyrrolidin-1-yl)cyclohexyl)-1H-pyrrolo[2,3-b]pyridin-3-yl)-4-(trifluoromethyl)thiazole]",1820 nM
